Measured values published in patent publication US20140128352A1, “COMPOUNDS AND METHODS FOR MODULATING MITOCHONDRIAL METABOLISM AND REACTIVE OXYGEN SPECIES PRODUCTION” (Buck Institute for Research on Aging, priority 2012, published 2014).
Like-named read-outs stand apart in the source and are kept apart here.

Tests used:
[1] = target: T1, flavin binding site of complex I (IF) (Rattus norvegicus, UniProt Q5XIH3); experiment: High-throughput screen: ROS production from flavin binding site of complex I (IF); type: biochemical
T1 construct: freshly isolated muscle mitochondria were assayed; from tissue; host or cells: rat skeletal muscle mitochondria (Wistar, Harlan Laboratories)

[2] = target: T2, outer ubiquinone binding site of complex III (IIIQO) (Rattus norvegicus, UniProt P00159+P20788); experiment: High-throughput screen: ROS production from outer ubiquinone binding site of complex III (IIIQO); type: biochemical
T2 construct: freshly isolated muscle mitochondria were assayed; from tissue; host or cells: rat skeletal muscle mitochondria (Wistar, Harlan Laboratories)
Procedure: Skeletal muscle mitochondria were isolated from 5-8 week old female Wistar rats (Harlan Laboratories). Minced muscle was homogenized in buffer containing bacterial protease Type VIII prior to differential centrifugation to separate mitochondria from other tissue components. Unless otherwise stated, freshly isolated muscle mitochondria were assayed in buffer containing 120 mM KCl, 5 mM HEPES, 1 mM EGTA, 0.3% (w/v) bovine serum albumin. Where indicated, CaCl2 was added to yield a final free concentration of 250 nM calcium at pH 7.0 at 37° C.
Compounds (10 mM in DMSO) were randomly selected from a library of 24,000 compounds obtained from ChemBridge and curated by the lab of Robert Hughes at the Buck Institute. Master screening plates were prepared using a Biomek FX liquid handling workstation (Beckman) to transfer 1 μL of each compound into individual wells on 96-well storage plates (80 compounds per plate). Master plates were sealed with foil and stored at −80° C. Just prior to use, plates were brought to room temperature and diluted 300-fold with standard buffer (13.3X=33.3 μM). To monitor the performance of each assay throughout screening and to provide intra-plate normalization reference points, DMSO negative controls and known mitochondrial inhibitor positive controls were included on each Master compound plate.
Total amounts of superoxide and H2O2 production were determined fluorometrically as H2O2, without distinguishing between them, in the presence of exogenous superoxide dismutase (25 units/mL final), horseradish peroxidase (1 unit/mL final), and Amplex UltraRed (25 μM final) as described (Affourtit, C. et al. (2012) Measurement of proton leak and electron leak in isolated mitochondria. Methods Mol. Biol. 810: 165-82). Just prior to use, a bulk 3.3X solution was made in standard buffer and distributed into a 2 mL deep well 96-well transfer plate.
To assess the effects of a compound on ROS production from the outer ubiquinone binding site of complex III (IIIQO), Start Solution containing 5 mM succinate, 4 μM rotenone and 2.5 μM antimycin A was distributed into standard 96-well transfer plates. A Biomek FX workstation was programmed to dispense solutions into black 96-well assay plates. Solutions were dispensed to all assay plates in the following order: ROS Detection solution described in Example 3, Mitochondria solution described in Example 1 to a final concentration of 0.1 mg/ml, and Compound dilutions described in Example 2. Duplicate assay plates were made and each was initiated by the addition of 3.3X Start solution containing 5 mM succinate, 4 μM rotenone and 2.5 μM antimycin A. Plates were incubated in the dark at room temperature for 30-40 minutes before acquiring endpoint fluorescence using a Victor 3V plate reader (Perkin Elmer) equipped with 550/590 nm excitation/emission filters.
The fluorescence values in each well were scaled as the percent change from the intra-plate DMSO controls with the appropriate inhibitor positive controls defined as −100%. Following initial scaling, intra-plate normalized values were subjected to Tukey's two-way median polish to remove row and column dependent positional effects (Malo et al., 2006).

[3] = target: T3, glycerol-3-phosphate dehydrogenase (GPDH) (Rattus norvegicus, UniProt P35571); experiment: High-throughput screen: ROS production from glycerol-3-phosphate dehydrogenase (GPDH); type: biochemical; set-up: inhibition: dose or concentration left out as unconfirmed; conditions: for inhibition / GPDH: percent change in ROS from DMSO controls
T3 construct: The activity of GPDH in intact mitochondria (0.3 mg/mL) was measured; from tissue; host or cells: rat skeletal muscle mitochondria (Wistar, Harlan Laboratories)
T3 sequence (P35571 43-727): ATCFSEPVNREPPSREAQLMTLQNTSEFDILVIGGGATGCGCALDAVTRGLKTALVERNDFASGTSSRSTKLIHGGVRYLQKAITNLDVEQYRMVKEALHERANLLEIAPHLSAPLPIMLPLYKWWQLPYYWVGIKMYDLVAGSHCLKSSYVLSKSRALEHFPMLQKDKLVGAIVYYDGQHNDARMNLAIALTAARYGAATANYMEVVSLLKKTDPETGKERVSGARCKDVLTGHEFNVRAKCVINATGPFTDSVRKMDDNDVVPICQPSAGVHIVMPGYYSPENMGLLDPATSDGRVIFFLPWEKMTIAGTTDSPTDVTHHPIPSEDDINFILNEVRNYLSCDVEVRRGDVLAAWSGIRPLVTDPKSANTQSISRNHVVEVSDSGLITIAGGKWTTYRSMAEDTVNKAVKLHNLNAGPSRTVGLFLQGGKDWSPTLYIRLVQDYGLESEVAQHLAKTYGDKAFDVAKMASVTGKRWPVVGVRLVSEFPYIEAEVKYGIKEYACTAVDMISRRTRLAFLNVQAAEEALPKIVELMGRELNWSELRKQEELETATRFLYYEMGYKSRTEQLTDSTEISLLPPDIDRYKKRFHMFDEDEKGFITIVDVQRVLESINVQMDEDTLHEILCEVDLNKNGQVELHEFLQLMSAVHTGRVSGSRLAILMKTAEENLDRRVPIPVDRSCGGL

[4] = tested on: ubiquinone binding site of complex I (IQ); experiment: High-throughput screen: ROS production from ubiquinone binding site of complex I (IQ), isolated skeletal muscle mitochondria; type: biochemical, rat; conditions: for % Reduction in ROS production (IQ): Table 2, 5 mM succinate, compounds 2.5 μM, percent change from DMSO, positive control −100%; for IQ: percent change in ROS from DMSO controls
[5] = tested on: mitochondrial membrane potential (ΔΨm); experiment: Membrane potential (ΔΨm) counterscreen with TMRM; conditions: malate, nigericin
Procedure: Skeletal muscle mitochondria were isolated from 5-8 week old female Wistar rats (Harlan Laboratories). Minced muscle was homogenized in buffer containing bacterial protease Type VIII prior to differential centrifugation to separate mitochondria from other tissue components. Unless otherwise stated, freshly isolated muscle mitochondria were assayed in buffer containing 120 mM KCl, 5 mM HEPES, 1 mM EGTA, 0.3% (w/v) bovine serum albumin. Where indicated, CaCl2 was added to yield a final free concentration of 250 nM calcium at pH 7.0 at 37° C. Total and free calcium concentrations were calculated using the Extended MaxChelator program at http://maxchelator.stanford.edu.
Compounds were manually transferred from the Master Compound Plate to two black 96-well assay plates. A bulk solution was prepared containing the following components (final concentrations) and manually dispensed into the two ΔΨm assay plates: the potentiometric dye TMRM (5 μM), mitochondria (0.2 mg/mL), glutamate (5 mM), malate (5 mM), and nigericin (80 ng/mL).

[6] = target: T4, succinate dehydrogenase/complex II (SDH) (Rattus norvegicus, UniProt P21913+Q641Z9+Q6PCT8+Q920L2); experiment: High-throughput screen: ROS production from succinate dehydrogenase/complex II (SDH); type: biochemical; conditions: for inhibition at 2.5 µM / SDH: percent change in ROS from DMSO controls
T4 construct: freshly isolated muscle mitochondria were assayed; from tissue; host or cells: rat skeletal muscle mitochondria (Wistar, Harlan Laboratories)

[7] = Table 7, percent change in ROS from DMSO controls, read-out: IF
[8] = Table 8, percent change in ROS from DMSO controls
[9] = Table 9, percent change in ROS from DMSO controls
[10] = Table 7, percent change in ROS from DMSO controls, read-out: IIIQO
[11] = Table 9, percent change in ROS from DMSO controls, read-out: IIIQo
[12] = Table 3, 5 mM glutamate, 5 mM malate, 4 μM rotenone, compounds 2.5 μM, percent change from DMSO, positive control −100%, read-out: % Reduction in ROS production (IF)
[13] = Table 8, percent change in ROS from DMSO controls, read-out: IF
[14] = Table 8, percent change in ROS from DMSO controls, read-out: IIIQO

T4 sequence (Q920L2 35-656): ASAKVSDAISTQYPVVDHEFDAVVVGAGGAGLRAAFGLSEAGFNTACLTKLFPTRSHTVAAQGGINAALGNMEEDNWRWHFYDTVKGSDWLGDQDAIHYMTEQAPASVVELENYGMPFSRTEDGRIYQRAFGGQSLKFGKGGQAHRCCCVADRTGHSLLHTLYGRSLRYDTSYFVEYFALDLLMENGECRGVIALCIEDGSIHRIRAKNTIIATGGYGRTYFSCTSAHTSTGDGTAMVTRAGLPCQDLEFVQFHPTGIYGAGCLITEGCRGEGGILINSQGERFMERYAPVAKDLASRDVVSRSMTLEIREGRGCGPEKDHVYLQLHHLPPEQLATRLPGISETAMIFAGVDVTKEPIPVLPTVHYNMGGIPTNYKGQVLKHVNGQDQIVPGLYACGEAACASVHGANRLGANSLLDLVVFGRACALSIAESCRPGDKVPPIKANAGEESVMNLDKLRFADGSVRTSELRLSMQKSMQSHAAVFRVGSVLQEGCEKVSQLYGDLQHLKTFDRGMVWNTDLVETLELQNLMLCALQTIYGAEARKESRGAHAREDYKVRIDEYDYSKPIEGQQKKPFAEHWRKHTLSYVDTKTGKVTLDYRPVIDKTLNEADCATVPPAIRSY
T4 sequence (P21913 31-282): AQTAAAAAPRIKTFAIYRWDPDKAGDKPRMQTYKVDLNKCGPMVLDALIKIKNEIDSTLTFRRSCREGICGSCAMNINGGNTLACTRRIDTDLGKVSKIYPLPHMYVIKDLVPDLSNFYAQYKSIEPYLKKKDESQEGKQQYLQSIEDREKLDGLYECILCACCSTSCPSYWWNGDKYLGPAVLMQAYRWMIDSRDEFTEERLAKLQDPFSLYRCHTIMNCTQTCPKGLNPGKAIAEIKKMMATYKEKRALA
T4 sequence (Q641Z9 30-169 limits assumed): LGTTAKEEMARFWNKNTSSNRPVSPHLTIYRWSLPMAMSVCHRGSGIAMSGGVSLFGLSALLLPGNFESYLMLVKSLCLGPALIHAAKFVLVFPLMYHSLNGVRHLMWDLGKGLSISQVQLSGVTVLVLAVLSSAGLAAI
T4 sequence (Q6PCT8 57-159): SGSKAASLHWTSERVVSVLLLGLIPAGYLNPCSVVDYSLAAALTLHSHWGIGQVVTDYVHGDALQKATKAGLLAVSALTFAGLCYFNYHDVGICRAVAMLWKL
T1 sequence (Q5XIH3 21-464 limits assumed, one chain of several): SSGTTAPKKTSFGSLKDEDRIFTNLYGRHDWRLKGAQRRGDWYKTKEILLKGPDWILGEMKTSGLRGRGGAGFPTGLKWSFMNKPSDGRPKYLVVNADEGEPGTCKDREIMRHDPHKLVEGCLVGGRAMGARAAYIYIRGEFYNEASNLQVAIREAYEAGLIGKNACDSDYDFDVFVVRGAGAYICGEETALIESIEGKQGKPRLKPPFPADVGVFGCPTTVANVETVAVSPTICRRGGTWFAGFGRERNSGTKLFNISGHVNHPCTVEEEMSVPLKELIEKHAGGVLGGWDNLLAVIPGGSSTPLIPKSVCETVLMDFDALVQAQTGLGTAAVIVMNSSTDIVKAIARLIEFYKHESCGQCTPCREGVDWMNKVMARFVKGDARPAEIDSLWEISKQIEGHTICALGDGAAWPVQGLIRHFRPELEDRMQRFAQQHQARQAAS

Row | SMILES | inhibition at 2.5 µM [1, 7] [%] | IF [1, 8] | IF [1, 9] | inhibition at 2.5 µM [2, 10] [%] | IIIQO [2, 8] | inhibition at 2.5 µM [2, 11] [%] | inhibition ([3]; Table 7) [%] | GPDH ([3]; Table 8) | GPDH ([3]; Table 9) | % Reduction in ROS production (IQ) [4] [%] | IQ ([4]; Table 7) | IQ ([4]; Table 8) | IQ ([4]; Table 9) | ΔΨm ([5]; Table 8, glutamate) | ΔΨm ([5]; Table 9, glutamate) | inhibition at 2.5 µM ([6]; Table 7) [%] | SDH ([6]; Table 8) | SDH ([6]; Table 9) | inhibition at 2.5 µM [1, 12] [%] | also measured
1 | O=S(=O)(Nc1ccc(Br)cc1)c1ccc(C2CCCCC2)cc1 [Compound 8] | 4.2 | −4.2 | −4.2 | -7.6 | 7.6 | -7.6 | 1.8 | −1.8 | −1.8 | −36.3 | −36.3 | −36.3 | −36.3 | −0.3 | −0.3 | -0.4 | 0.4 | 0.4 | – | –
2 | CC1=CC(C)C(C2OCC(CN3CCCCC3)O2)C(C)C1 (stereo not drawn) [Compound 13] | 39 | −39.0 | −39.0 | 9 | −9.0 | 9 | 1.2 | −1.2 | −1.2 | – | 0.1 | 0.1 | 0.1 | −0.5 | −0.5 | 2.8 | −2.8 | −2.8 | 39 | –
3 | O=C(Nc1ccccc1C(=O)O)c1ccccc1 [Compound 18] | 25.8 | −25.8 | −25.8 | -5.4 | 5.4 | -5.4 | 0.6 | −0.6 | −0.6 | – | −1.0 | −1.0 | −1.0 | −0.7 | −0.7 | 0.3 | −0.3 | −0.3 | 25.8 | –
4 | COc1ccc(NC(=S)NC(=O)c2ccco2)cc1 [Compound 75] | – | – | – | – | – | – | – | – | – | −50 | – | −50 | – | −2 | – | – | – | – | 83 | inhibition at 2.5 µM [1, 13]: 83%; inhibition at 2.5 µM [2, 14]: -3%; inhibition at 2.5 µM ([3]; Table 6, 25 mM glycerol phosphate, rotenone, antimycin A, malonate, myxothiazol, compounds 2.5 μM, scaled to IQ positive controls, read-out: % Reduction in ROS Production (GPDH)): 16%; inhibition ([3]; Table 8): 16%; % Reduction in ROS Production (SDH) ([6]; Table 5, 15 μM palmitoyl carnitine, 2.5 μM antimycin A, 2 μM myxothiazol, compounds 2.5 μM, percent change from DMSO): −22%; inhibition at 2.5 µM ([6]; Table 8): 22%
5 | CCCN(CCO)Cc1ccc2c(c1)c1ccccc1n2CC [Compound 15] | 27.6 | −27.6 | −27.6 | 7.5 | −7.5 | 7.5 | 2.5 | −2.5 | −2.5 | – | −0.1 | −0.1 | −0.1 | −0.9 | −0.9 | 2.7 | −2.7 | −2.7 | 27.6 | –
6 | O=C(Nc1ccccc1F)[C@@H]1C2C=CC(C2)[C@@H]1C(=O)O (stereo partly drawn) [Compound 20] | 24 | −24.0 | −24.0 | -1.2 | 1.2 | -1.2 | 1.7 | −1.7 | −1.7 | – | 0.2 | 0.2 | 0.2 | −0.3 | −0.3 | 0.7 | −0.7 | −0.7 | 24 | –
7 | c1ccc(C2CCC(Nc3ccc4c(c3)OCO4)CC2)cc1 (stereo not drawn) [Compound 77] | – | – | – | – | – | – | – | – | – | −18 | – | −18 | – | 1 | – | – | – | – | – | inhibition at 2.5 µM [1, 13]: 6%; inhibition at 2.5 µM ([2]; Table 4, 5 mM succinate, 4 μM rotenone, 2.5 μM antimycin A, compounds 2.5 μM, percent change from DMSO, read-out: % Reduction in ROS production (IIIQO)): 15%; inhibition at 2.5 µM [2, 14]: 15%; inhibition ([3]; Table 8): -1%; inhibition at 2.5 µM ([6]; Table 8): 0%
8 | Cc1ccc(C(C)C)c(OCC(O)CN2CCN(Cc3ccccc3)CC2)c1.Cl.Cl (stereo not drawn) [Compound 21] | 23 | −23.0 | −23.0 | 9.9 | −9.9 | 9.9 | 1.8 | −1.8 | −1.8 | – | 0.0 | 0.0 | 0.0 | −0.3 | −0.3 | -1.7 | 1.7 | 1.7 | 23 | –
9 | CC(=O)Nc1ccc(S(=O)(=O)Nc2cccc(C)c2)cc1 [Compound 10] | -3.3 | 3.3 | 3.3 | 2.8 | −2.8 | 2.8 | 4.3 | −4.3 | −4.3 | −24.1 | −24.1 | −24.1 | −24.1 | −0.2 | −0.2 | -1 | 1.0 | 1.0 | – | –
